According to ChEMBL document CHEMBL1131562, “Synthesis of L-enantiomers of 4'-thioarabinofuranosyl pyrimidine nucleosides” (1998):
Converted amounts (≈) assume the structure as drawn. The source made the active and inactive calls. The rule behind the calls is not given here.

What was measured:
Homo sapiens = species on record: Homo sapiens; experiment: Cytotoxicity against human T-cell leukemia, CCRF-HSB-2, at concentration up to 100 ug/mL; NA means not active; type: functional
Human alphaherpesvirus 2 [1] = experiment: Effective dose required for antiviral activity against herpes simplex virus type-2; type: functional; details: read-out: ED50 (the source's name)
Human alphaherpesvirus 1 [2] = experiment: Effective dose required for antiviral activity against herpes simplex virus type-1; type: functional; details: read-out: ED50 (the source's name)
Human alphaherpesvirus 1 [3] = experiment: Antiviral activity against herpes simplex virus type-1 at concentration up to 100 ug/mL; NA means not active; type: functional, organism-based
Human alphaherpesvirus 2 [4] = experiment: Antiviral activity against herpes simplex virus type-2 at concentration up to 100 ug/mL; NA means not active; type: functional, organism-based

Question: Which Activity (Homo sapiens) does the source give for `Nc1ccn([C@@H]2S[C@@H](CO)[C@H](O)[C@H]2O)c(=O)n1` here?
Answer: inactive

Question: What about the EC50 (Human alphaherpesvirus 2 [1]) of the same compound?
Answer: 10 µg/mL (≈ 38.6 µM)

Question: What about the EC50 (Human alphaherpesvirus 1 [2]) of the same compound?
Answer: 10 µg/mL (≈ 38.6 µM)

Question: How did the Activity (Homo sapiens) turn out when `Nc1ccn([C@H]2S[C@@H](CO)[C@H](O)[C@H]2O)c(=O)n1` was run?
Answer: inactive

Question: What about the Activity (Human alphaherpesvirus 1 [3]) of the same compound?
Answer: inactive

Question: What about the Activity (Human alphaherpesvirus 2 [4]) of the same compound?
Answer: inactive

Question: What does the source list for `Cc1cn([C@H]2S[C@@H](CO)[C@H](O)[C@H]2O)c(=O)[nH]c1=O`?
Answer: Activity (Homo sapiens): inactive; Activity (Human alphaherpesvirus 1 [3]): inactive; Activity (Human alphaherpesvirus 2 [4]): inactive

Question: With `Cc1cn([C@@H]2S[C@@H](CO)[C@H](O)[C@H]2O)c(=O)[nH]c1=O` as the compound, how does the Activity (Homo sapiens) read?
Answer: inactive

Question: And the Activity (Human alphaherpesvirus 1 [3])?
Answer: inactive

Question: And the Activity (Human alphaherpesvirus 2 [4])?
Answer: inactive
